From PubChem BioAssay (NCI)
Values joined by “and” are separate entries in the source; they are usually repeats but may differ in a detail not shown here. Equal values may be shown once.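 Tested at 5 concentrations; 48 h exposure; 96-well plates; endpoints linearly interpolated, else capped at highest concentration. GI50: concentration for 50% inhibition of growth. TGI is the concentration that stops growth completely.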

Tests used:
Test in all cases: NCI tumour cell line growth inhibition, 48 h
MOLT-4 leukemia = test system: MOLT-4 leukemia
RPMI-8226 leukemia = test system: RPMI-8226 leukemia
PC-3 prostate = test system: PC-3 prostate
OVCAR-3 ovarian = test system: OVCAR-3 ovarian
RXF 393 renal = test system: RXF 393 renal
COLO 205 colon = test system: COLO 205 colon
MDA-MB-435 = test system: MDA-MB-435
NCI/ADR-RES ovarian = test system: NCI/ADR-RES ovarian
SF-539 CNS = test system: SF-539 CNS
SK-MEL-28 melanoma = test system: SK-MEL-28 melanoma

Row | Compound | GI50 (MOLT-4 leukemia) | TGI (MOLT-4 leukemia) | GI50 (RPMI-8226 leukemia) | TGI (RPMI-8226 leukemia) [µM] | GI50 (PC-3 prostate) | TGI (PC-3 prostate) [µM] | GI50 (OVCAR-3 ovarian) | TGI (OVCAR-3 ovarian) | GI50 (RXF 393 renal) | TGI (RXF 393 renal) | GI50 (COLO 205 colon) | TGI (COLO 205 colon) | GI50 (MDA-MB-435) | TGI (MDA-MB-435) [µM] | GI50 (NCI/ADR-RES ovarian) | TGI (NCI/ADR-RES ovarian) [µM] | GI50 (SF-539 CNS) | TGI (SF-539 CNS) | GI50 (SK-MEL-28 melanoma) | TGI (SK-MEL-28 melanoma)
1 | CCCN(CCC)c1ccc(/C=N/NC(=O)c2cccnc2)c(OC)c1 | 22.8 µM | 51.7 µM | 34.5 µM | > 100 | 25.2 µM | > 100 | 16.9 µM | 36.7 µM | 28.7 µM | 84.8 µM | 20.1 µM | 46.3 µM | 10.3 µM | 43 | 24.8 µM | > 100 | 28.3 µM | > 100 µM | 26.6 µM | 98 µM
2 | C/C(=C\c1cc(C(F)(F)F)n(-c2ccc(N)cc2)n1)[C@@H]1C[C@@H]2O[C@]2(C)CCC[C@H](C)[C@H](O)[C@@H](C)C(=O)C(C)(C)[C@@H](O)CC(=O)O1 | 0.0515 µM | > 11.1 µM | < 0.0106 µM | > 11.1 | 0.0297 µM | > 11.1 | 0.0182 µM | 1.75 µM | 0.032 µM | 0.379 µM | 0.0162 µM | 0.582 µM | 0.00227 µM | 0.00567 | 0.164 µM | > 8.45 | 0.025 µM | 0.336 µM | 0.547 µM | > 11.1 µM
3 | COc1cc(-c2csc(NC(=O)Nc3ccc(C(F)(F)F)cc3)n2)cc(OC)c1OC | 1.85 µM | 5.46 µM | 2.26 µM | 8.69 | 1.84 µM | 8.2 | 2 µM | 5.22 µM | 2.18 µM | 5.89 µM | 2.1 µM | 4.5 µM | 1.71 µM | 3.74 | 2.12 µM | 6.94 | 2.28 µM | 6.68 µM | 2.22 µM | 5.79 µM
4 | O=C(N/N=C/c1ccc(O)cc1O)c1cccc(Nc2ccnc(C(F)(F)F)c2)c1 | 0.491 µM | 4.56 µM | 3.55 µM | 14.9 | 3.01 µM | 34.2 | 0.488 µM | 30.9 µM | 2.48 µM | 17.4 µM | 0.554 µM | 15 µM | 0.861 µM | 20.8 | 9.05 µM | > 90.1 | 0.967 µM | 7.74 µM | 1.83 µM | 16.6 µM
5 | Cc1cc2c(C(N)=O)c(N)n(-c3c(C)ccc(O)c3C)c2nc1C | 2.86 µM | > 100 µM | 3.48 µM | > 100 | 32.7 µM | > 100 | 3.07 µM | 14.7 µM | 0.12 µM | 0.855 µM | 1.7 µM | 11.7 µM | 1.04 µM | 3.33 | 6.48 µM | 32.7 | 0.434 µM | 2.88 µM | 4.73 µM | > 100 µM
6 | COc1cc2nccc(Oc3ccc(NC(=O)Nc4cc(C)on4)c(Cl)c3)c2cc1OC | 2.12 µM and 1.86 µM | 44.1 µM and > 10 µM | 9.83 µM and 4.33 µM | > 55.7 | 4.74 µM and 5.91 µM | > 100 | 4 µM and 7.96 µM | 14.4 µM and > 10 µM | 1.96 µM and 1.79 µM | 6.2 µM and 8.18 µM | 3.22 µM and 3.04 µM | 32.7 µM and > 10 µM | 2.74 µM and 2.98 µM | > 59.6 | 3.08 µM and 3.53 µM | > 100 | 1.49 µM and 1.41 µM | 4.05 µM and 4.74 µM | 3.76 µM and 4.31 µM | 19.3 µM and > 10 µM
7 | O=C1c2ccccc2-c2c1c1c(O)cccc1n2Cc1ccccn1 | 91.4 µM | > 100 µM | 19.9 µM | > 100 | 43.8 µM | > 100 | 20.1 µM | 69.4 µM | 45.7 µM | > 100 µM | 61 µM | > 100 µM | 27.4 µM | > 100 | 43.2 µM | > 100 | 17 µM | 44.1 µM | > 100 µM | > 100 µM
